Assay [1] deals with C2C12 cells. Briefly: Effect of Lat-B on cytoskeleton reorganization / morphology of C2C12 cells (brightfield microscopy). The class given is cell-based. As for the experimental part:
(§1) Difference in cytoskeleton reorganization of differentiated cells vs. undifferentiated ones was studied by treating cells with Latrunculin-B (Lat-B) (Abcam, ab144291). C2C12 cells grown in GM and the partially differentiated ones in DM were treated with 100 nM Lat-B in GM and DM, respectively, for 1 hr at D1 and microscopy was performed using inverted microscope in brightfield mode. Effect of cytoskeleton reorganization on detachment of the sheets was also studied by treating the cells with 50 and 100 nM of Lat-B in DM during the 24 hrs before delamination. Lat-B stock solution was prepared by dissolving 100 μg in 1 mL DMSO.

The test system of assay [2] is C2C12 cells. The experiment in a line: Effect of Lat-B treatment during the 24 hrs before delamination on detachment / sheet formation. The assay is classed as cell-based. As for the experimental part: In order to start the delamination process DM was replaced with acidic medium (medium A) (DM with 0.1% V/V acetic acid, final pH of ˜6) and samples were incubated for 5-10 min at 37° C. At this point that sheets started to delaminate the process was accelerated by gentle shaking of the well plate. Process could be accelerated by applying shear force using gentle pipetting of medium to the edges of the wells. Immediately after delamination was completed, medium A was replaced with basic medium (medium B, final pH of ˜8) (DM with 0.1% V/V 0.1 M sodium hydroxide in deionized water) in order to prevent samples from forming clumps. After 5 min of treatment with medium B, samples were transferred to neutral medium (medium N, pH of 7.4) (DM without any pH adjustment). In case of stacks, the required number of sheets, either 2 layers of cell sheets (double-layer constructs) or 4 layers (quadruple-layer constructs), were stacked on top of each other by simply dragging them using a tweezer and placing them on each other. This process was also performed in abundant amounts of medium B and after stacking was done, most of the media was aspirated to let the sheets settle down because of their weight for 5 more minutes and then extra medium N was added (FIG. 1B). Images of sheets were taken 1 hr after delamination/stacking and 24 hrs later using a stereomicroscope (Infinity Optical Systems). Diameter of the sheets was used using ImageJ at these time points to study effect of number of layers on shrinkage pattern of the constructs.
as §1

For assay [3], the system named is C2C12 cells. The settings on record: 100 nM in DM, Nowak et al. 2009; cited from earlier work.

Data on one compound can be found in US20230272345A1, “SELF-ASSEMBLED CELL SHEET CONSTRUCTS AND METHODS OF MAKING THEREOF” (Caro Meats Inc., priority 2020, published 2023).

Structures are written as SMILES.

As for `C/C1=C/C(=O)O[C@@H]2C[C@@H](CC[C@H](C)/C=C\CC1)O[C@@](O)([C@@H]1CSC(=O)N1)C2` [Lat-B, Latrunculin-B], the “Morphology after 24 hr of treatment” value in assay [1] (50 nM Lat-B in DM, 24 hr (D1 to D2)) is recorded as “slightly round”. The “Morphology during the first few hours” value in assay [1] (50 nM Lat-B in DM, first few hours (data not shown)) was “did not show significant changes in their morphology”. Besides, in assay [1] (100 nM Lat-B in DM, 1 hr at D1, partially differentiated C2C12), the “Morphology of partially differentiated cells” value was “changed very fast to round cells and eventually they formed clumps of cells”. Moreover, in assay [1] (100 nM Lat-B in DM, 24 hrs (D1 to D2)), the “Morphology after 24 hrs of treatment” value is on record as “regained their stretched morphology after 24 hrs of treatment but were still rounder compared to untreated cells”. The “Morphology of undifferentiated cells” value in assay [1] (100 nM Lat-B in GM, 1 hr at D1, undifferentiated C2C12) was “only became slightly round”. Moreover, the “Delamination / sheet formation” value is “started to delaminate, but the sheets were fragile and broke to smaller pieces” in assay [2] (50 nM Lat-B in DM for 24 hrs before delamination); “delaminated but were fragile” in assay [2] (50 nM Lat-B in DM for 24 hrs before delamination, listed as Latrunculin-B); “did not form sheets at all” in assay [2] (100 nM Lat-B in DM for 24 hrs before delamination); “did not form continuous sheets” in assay [2] (100 nM Lat-B in DM for 24 hrs before delamination, listed as Latrunculin-B). In addition, in assay [3], the “Fusion of C2C12 cells” value was “would not fuse to each other”.
